In patent US20250040542A1, “USE OF PHENYLPHENALENONES AS A SELECTIVE HERBICIDE” (UNIVERSITE DE LIMOGES, priority 2021, published 2025):

How the values were obtained:
Poppy (Papaver rhoeas) = test: Greenhouse foliar spraying on weed; type: in vivo; set-up: key to Resistance (degree of resistance of the weed to the treatments): least resistant +; most resistant ++++++++
Description: (§1) A 5 mM stock solution was prepared in 50% v/v ethanol (96°). Next, the solution was further diluted in distilled water to obtain 10 μM for in vitro testing and 50 μM, 75 μM and 100 μM for greenhouse testing. 0.1% v/v of the surfactant IGEPAL-Co 630 was added to the solution in order to obtain a product ready for spraying on seedlings in the greenhouse.
(§2) The different seeds are grown in a greenhouse in commercial potting soil (Terreau Universel, Fertiligene). The seeds were sown in the greenhouse under controlled temperature and humidity conditions (the temperature varies between 15° C. and 30° C. depending on the season, and the relative humidity varies from 50 to 70%). 6 isolated treatments (approximately 10 sprays each) spaced 48 hours apart were carried out one week after germination.
(§3) After 7 weeks, the seedlings were harvested. The roots and aboveground parts were separated and the roots were washed with distilled water and dried on absorbent paper. These materials were then stored at −20° C.
(§4) The formulation in which the active ingredient is 50 μM Anigorufone was tested on a barley+poppy system and on tomato plants, with two treatments spaced 48 hours apart.
Tests in a greenhouse were carried out. All plants were exposed to 6 treatments with 3 increasing doses spaced 48 hours apart: C1 (50 μM or 13.6 mg/l), C2 (75 μM or 20.4 mg/l), C3 (100 μM or 27.2 mg/l). […]

[1] = tested on: Tomato Lycopersicon esculentum var Marmande; test: Greenhouse foliar spraying on plant of interest; type: in vivo
Description: as §1, §2, §3, §4
(§5) Tests in a greenhouse were carried out. All plants were exposed to 6 treatments with 3 increasing doses spaced 48 hours apart: C1 (50 μM or 13.6 mg/l), C2 (75 μM or 20.4 mg/l), C3 (100 μM or 27.2 mg/l). Harvesting was conducted 7 weeks after germination.

Corn (Zea mays) = test: Greenhouse foliar spraying on plant of interest; type: in vivo; conditions: 6 treatments spaced 48 hours apart, C1 50 μM, C2 75 μM, C3 100 μM, harvest 7 weeks after germination
Description: as §1, §2, §3, §5

Onion (Allium cepa) = test: Greenhouse foliar spraying on plant of interest; type: in vivo; conditions: 6 treatments spaced 48 hours apart, C1 50 μM, C2 75 μM, C3 100 μM, harvest 7 weeks after germination
Description: as §1, §2, §3, §5

[2] = tested on: Spinach (Spinacia oleracea); test: Greenhouse foliar spraying on plant of interest; type: in vivo; conditions: 6 treatments spaced 48 hours apart, C1 50 μM, C2 75 μM, C3 100 μM, harvest 7 weeks after germination
Description: as §1, §2, §3, §5

[3] = tested on: Sunflower (Helianthus annuus); test: Greenhouse foliar spraying on plant of interest; type: in vivo; conditions: 6 treatments spaced 48 hours apart
Description: as §1, §2, §3, §5

Turnip (Brassica napa) = test: Greenhouse foliar spraying on plant of interest; type: in vivo; conditions: 6 treatments spaced 48 hours apart, C1 50 μM, C2 75 μM, C3 100 μM, harvest 7 weeks after germination
Description: as §1, §2, §3, §5

Wheat (Triticum sativum) = test: Greenhouse foliar spraying on plant of interest; type: in vivo; conditions: 6 treatments spaced 48 hours apart, C1 50 μM, C2 75 μM, C3 100 μM, harvest 7 weeks after germination
Description: as §1, §2, §3, §5

[4] = tested on: Dandelion (Taraxacum officinale); test: Greenhouse foliar spraying on weed; type: in vivo; set-up: key: least resistant +; most resistant ++++++++; conditions: 6 treatments spaced 48 hours apart, C1 50 μM, C2 75 μM, C3 100 μM, harvest 7 weeks after germination; ranking among 8 weeds
Description: as §1, §2, §3, §5

[5] = Photodegradation test, exposed to sunlight; type: physicochemical; conditions: 100 μM in distilled water
Description: A photodegradation test was conducted on 100 μM anigorufone exposed to sunlight. An anigorufone solution was prepared at the studied dose (100 μM) from a stock solution in 50 ml of distilled water in glass flasks. The flasks were placed outside and exposed to full sunlight. The experiment was carried out three times in June 2022 under light conditions corresponding to sunny/partially clear skies. 1 ml of the solution was run through UV-Vis spectrometry and photodegradation was tracked by the decrease in absorbance at 370 nm. […]

Fishing worms (maggots) = test: Toxicity test on fishing worms (maggots); type: in vivo
Description: Fishing worms (maggots) were spray treated with 100 μM (27.2 mg/L) anigorufone. 30 fishing worms were cultured per petri dish and 10 sprays were performed per dish. The fishing worms were cultured under photoperiod conditions (16 h light/8 h dark); 8000 Lux; 22° C.). The experiment was conducted three times. […]

growth of tomatoes compared to the control lot ([1]; 50 μM, two treatments spaced 48 hours apart, foliar spraying): does not affect their growth
growth of tomato plants two months after treatment ([1]; 50 μM, two treatments, two months after treatment, compared to untreated plants): normal growth
effect on tomato ([1]; 6 treatments spaced 48 hours apart, C1 50 μM, C2 75 μM, C3 100 μM, harvest 7 weeks after germination): no effect
effect on corn (Corn (Zea mays)): no effect
effect on onion (Onion (Allium cepa)): no effect
effect on spinach [2]: no effect
effect on sunflower ([3]; C1 50 μM, C2 75 μM, C3 100 μM, harvest 7 weeks after germination): no effect
effect on turnip (Turnip (Brassica napa)): no effect
effect on wheat (Wheat (Triticum sativum)): no effect
photodegradation ([5]; after 2 weeks): degraded almost completely
persistent molecules ([5]; after 72 hours, absorbance at 370 nm): 30-40%
Structure (SMILES): O=C1C(O)=Cc2cccc3ccc(-c4ccccc4)c1c23 [Anigorufone, 2-hydroxy-9-phenylphenalenone]
herbicidal effect on poppy (Poppy (Papaver rhoeas); 50 μM, two treatments spaced 48 hours apart, foliar spraying, 17-day-old seedlings, barley+poppy system): dead
Resistance (degree of resistance of the weed to the treatments) (Poppy (Papaver rhoeas); 6 treatments spaced 48 hours apart, C1 50 μM, C2 75 μM, C3 100 μM, harvest 7 weeks after germination, ranking among 8 weeds): +
flowering of sunflowers ([3]; treated with C1 (50 μM) and C2 (75 μM)): flowering induction
Resistance (degree of resistance of the weed to the treatments) [4]: ++++++++
viability rate of the maggots compared to the control conditions (Fishing worms (maggots); spray treated with 100 μM (27.2 mg/L), 10 sprays per dish, 30 worms per dish): remains constant
effects on fishing worms (Fishing worms (maggots); tested at 100 μM (27.2 mg/L), spray): no effects
